In patent US10725055B1, “Compounds for carbonyl sulfide/carbon disulfide/hydrogen sulfide release and methods of making and using the same” (University of Oregon, priority 2016, dated 2020):
“Also recorded” adds a separate entry of the source. Read-outs that look alike come from different tables or passages of the source.

Key:
[1] = system: BEAS 2B cells; assay: Bioenergetic analysis in cultured cells (XF24 Extracellular Flux Analyzer); type: cell-based, human; conditions: for inhibition of cellular bioenergetics: same conditions, 1, 3, 10 μM; for ATP synthesis / maximal respiration / oxygen consumption linked with basal respiration: 1, 3, 10 μM, 24 hours
Description: Cells were then washed with PBS.

[2] = system: BEAS 2B cells
[3] = system: BEAS 2B cells; conditions: for LDH levels: 10 μM, 24 hours
Description: Lactate dehydrogenase (LDH) release was determined as a cytotoxicity assay, a measurement of necrotic cell death, as described previously. Briefly, 30 μL of supernatant was saved before addition of MTT and mixed with 100 μL of freshly prepared LDH assay reagent to reach final concentrations of 85 mM lactic acid, 1040 mM nicotinamide adenine dinucleotide (NAD+), 224 mM N-methylphenazonium methyl sulfate (PMS), 528 mM 2-(4-lodophenyl)-3-(4-nitrophenyl)-5-phenyl-2H-tetrazolium chloride (INT) and 200 mM Tris (pH 8.2). The changes in absorbance were read kinetically at 492 nm for 15 min (kinetic LDH assay) on a monochromator-based reader (Powerwave HT, Biotek) at 37° C. LDH activity values are shown as Vmax for the kinetic assays in mOD/min.

[4] = molecular target: CA from bovine erythrocytes (Bos taurus, UniProt P00921); type: biochemical
[5] = Fluorescence response of MeRho-TCA to NaSH and other RSONs
[6] = system: HeLa cells; assay: Cytoprotection against H2O2-induced oxidative stress, CCK-8; type: cell-based; conditions: H2O2 100 μM, compound 10-50 μM, 1 hour
[7] = system: HeLa cells; assay: Cytotoxicity in HeLa cells, CCK-8; conditions: 10-100 μM, 2 hour incubation
[8] = not given; remark: listed apart in the source
[9] = system: HeLa cells; conditions: 50 μM compound
[10] = system: RAW 264.7 cells; conditions: 50 μM compound
[11] = H2O2-triggered H2S release from PeroxyTCM/TCM compounds, H2S electrode; conditions: for H2S release efficiency: 50 μM compound; for H2S release upon treatment with H2O2: PBS pH 7.4, CA 25 μg/mL
[12] = H2S release from photo-triggerable compounds under UV light, methylene blue (MB) assay; conditions: for peaking time for H2S release: 50 μM, LED UV light 365 nm, PBS pH 7.4, CA 25 μg/mL
[13] = NMR monitoring of self-immolation after TCEP reduction; type: physicochemical; conditions: 1H, 13C{1H}, 19F NMR
Description: In some embodiments, an azide in the para position of the benzylthiocarbamate was used to function as the H2S-responsive “trigger” for self-immolation and COS release. To facilitate NMR identification of the products, azidobenzylthiocarbamate (donor compound 1 of FIG. 2) was made with a p-fluoroaniline payload, and the corresponding carbamate (donor compound 2 of FIG. 2) as a control donor compound. Although donor compound 2 should undergo the same self-immolative decomposition upon azide reduction, it will release CO2 rather than COS, and thus should not result in H2S donation upon reaction with CA. […] The disappearance of the benzylic peak, loss of the thiocarbonyl carbon peak, and formation of new resonances upon self-immolation by NMR spectroscopy (FIGS. 3A-3C) confirmed that self-immolation occurs. All such changes were observed within 5 minutes of TCEP addition, confirming the rapid self-immolation of the scaffold upon reduction, and were consistent with COS release from the thiocarbamate scaffold upon azide reduction.

[14] = H2S release from azidobenzyl thiocarbamate/carbamate after TCEP reduction in presence of CA, H2S electrode; conditions: buffer containing CA; for H2S release upon injection of TCEP: TCEP added
[15] = Total sulfide in whole mouse blood, monobromobimane (mBB) method; conditions: 25 μM compound, 30 minutes incubation with excess TCEP
[16] = system: BEAS 2B cells; remark: listed apart in the source
[17] = absence of esterase
[18] = system: porcine liver esterase (PLE); assay: Esterase (PLE)-triggered H2S release, H2S-selective electrode
[19] = system: porcine liver esterase (PLE); assay: H2S release from 5 detected with H2S-responsive fluorescent probe MeRho-Az; conditions: 50 μM compound, 5 μM MeRho-Az, CA, 1 U/mL PLE
[20] = at concentrations lower than 30 μM
[21] = COS gas in 10 mM PBS, pH 7.4, no CA

CA from bovine erythrocytes, sequence (P00921 whole entry): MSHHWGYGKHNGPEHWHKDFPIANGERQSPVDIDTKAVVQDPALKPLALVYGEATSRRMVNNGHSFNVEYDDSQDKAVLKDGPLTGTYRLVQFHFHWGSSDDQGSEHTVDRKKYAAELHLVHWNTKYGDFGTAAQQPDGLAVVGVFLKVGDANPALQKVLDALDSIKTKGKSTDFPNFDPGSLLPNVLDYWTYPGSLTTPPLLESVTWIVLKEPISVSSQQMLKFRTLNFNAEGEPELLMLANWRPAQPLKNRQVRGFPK

O=C(CCCCCCCCC[P+](c1ccccc1)(c1ccccc1)c1ccccc1)Oc1ccc(-c2cc(=S)ss2)cc1.[Br-] [AP39, reference compound]
inhibition of cellular bioenergetics [1]: No significant inhibition of cellular bioenergetics
cytotoxicity, MTT assay ([2]; at 30 μM): minimal cytotoxicity
cytotoxicity, MTT assay [2, 20]: none
cytotoxicity, LDH assay ([3]; at 30 μM): minimal cytotoxicity
cytotoxicity, LDH assay [3, 20]: none

O=C=S [COS, carbonyl sulfide]
H2S production from COS ([4]; COS gas in deoxygenated PBS, 1 mM CTAB, pH 7.4, with CA): rapid H25 production
H2S formation from COS ([4]; buffer in the absence of CA): negligible current; also recorded: minimal H2S formation
H2S from COS after H2O2 addition [21]: rapid H2S generation
H2S from COS prior to H2O2 addition [21]: No H2S was detected

C1COCCN1.COc1ccc(P(=S)(S)N2CCOCC2)cc1 (stereo not shown) [GYY4137, reference compound]
inhibition of cellular bioenergetics [1]: No significant inhibition of cellular bioenergetics
cytotoxicity, MTT assay, compared to DMSO vehicle ([2]; up to 30 μM): no significant cytotoxicity
cytotoxicity, LDH assay, compared to DMSO vehicle ([3]; up to 30 μM): no significant cytotoxicity

[N-]=[N+]=Nc1ccc(COC(=S)Nc2ccc3c(c2)Oc2ccccc2C32OC(=O)c3ccccc32)cc1 (stereo not shown) [MeRho-TCA, O-(4-Azidobenzyl)-N-methylrhodolthiocarbamate]
fluorescence turn-on ([5]; 50 equivalents of NaSH, PBS, 1 mM CTAB, pH 7.4, over 90 minutes): 65 fold
selectivity of fluorescence response ([5]; vs Cys, GSH, Hcy, S2O3 2-, SO3 2-, SO4 2-, H2O2, NO): excellent selectivity for H2S over other RSONs

CC1(C)OB(c2ccc(COC(=O)Nc3ccc(F)cc3)cc2)OC1(C)C [PeroxyCM-1]
cell viability / protection against H2O2-mediated oxidative stress [6]: attenuated rescue from oxidative stress
cell viability (cytotoxicity) [7]: No significant decrease in cell viability

CC1(C)OB(c2ccc(COC(=S)Nc3ccc(F)cc3)cc2)OC1(C)C [PeroxyTCM-1]
cell viability / protection against H2O2-mediated oxidative stress [6]: significant dose-dependent increase of cell viability
cell viability (cytotoxicity) [7]: No significant decrease in cell viability
H2S release after incubation with H2O2, O2−, or ONOO− ([8]; 50 μM compound, RSONS 500 μM, CA 25 μg/mL, 20 min): resulted in H2S release
H2S release after incubation with other RSONS ([8]; ClO−, HO, 1O2, TBHP, tBuO, Cys, GSH, GSSG, GSNO, NO2, SO4 2−, S2O3 2−, NO, HNO): failed to release H2S
H2S release with H2O2 in the absence of CA (H2O2 10 equiv, no CA): positive H2S release response
HSN2 fluorescence after addition of H2O2 ([9]; H2O2 25 μM or 50 μM): H2O2 dose-dependent increase in HSN2 fluorescence
HSN2 fluorescence in the absence of H2O2 ([9]; HSN2 5 μM): no HSN2 fluorescence was observed
HSN2 signal after addition of PMA ([10]; 500 nM PMA): significant increase in signal from HSN2
HSN2 signal in the absence of PMA ([10]; HSN2 5 μM): no fluorescent signal from HSN2
H2S release efficiency ([11]; 250 μM H2O2): 80%
H2S release efficiency ([11]; 500 μM H2O2): 60%

O=C(Nc1ccc(F)cc1)OCc1ccccc1[N+](=O)[O-] [PhotoCM-1]
H2S release upon UV irradiation with CA ([12]; UV 10 min, CA 25 μg/mL): no H2S release was observed

O=[N+]([O-])c1ccccc1COC(=S)Nc1ccc(F)cc1 [PhotoTCM-1]
peaking time for H2S release [12]: ~10 min
H2S generation in the absence of UV irradiation ([12]; PBS pH 7.4, no UV): did not generate H2S
H2S release upon UV irradiation with CA ([12]; UV 10 min, CA 25 μg/mL): significant enhancement of H2S concentration
H2S upon UV irradiation in the absence of CA ([12]; UV 10 min, no CA): low levels of H2S
H2S upon UV irradiation with CA and acetazolamide (AAA) ([12]; UV, CA 25 μg/mL, AAA 10 μM): significantly reduced
H2S generation with cellular nucleophiles ([12]; cysteine, homocysteine, GSH, GSSG, serine, lysine, in the presence of CA): does not generate H2S

COc1cc(COC(=S)Nc2ccc(F)cc2)c([N+](=O)[O-])cc1OC [PhotoTCM-2]
peaking time for H2S release [12]: ~10 min

Fc1ccc(NC(=S)OCc2ccccc2)cc1 [TCM-1]
H2S release upon UV irradiation with CA ([12]; UV 10 min, CA 25 μg/mL): did not release H2S
cell viability / protection against H2O2-mediated oxidative stress [6]: no protection
cell viability (cytotoxicity) [7]: No significant decrease in cell viability
H2S release upon treatment with H2O2 [11]: did not release H2S

Cc1ccc(NC(=S)OCc2ccccc2)cc1 [TCM-2]
H2S release upon treatment with H2O2 [11]: did not release H2S

[N-]=[N+]=Nc1ccc(COC(=S)Nc2ccc(F)cc2)cc1 [compound 1, O-(4-Azidobenzyl)-N-(4-fluorophenyl)thiocarbamate]
time to NMR changes showing self-immolation after TCEP addition [13]: ≤ 5 min
H2S release upon injection of TCEP [14]: rapid release of H2S
H2S formation before TCEP ([14]; no TCEP): did not result in H2S formation; also recorded: no H2S is formed

[N-]=[N+]=Nc1ccc(COC(=O)Nc2ccc(F)cc2)cc1 [compound 2, O-(4-Azidobenzyl)-N-(4-fluorophenyl)carbamate]
H2S release upon injection of TCEP [14]: no H2S was produced

Cc1ccc(NC(=S)OCc2ccccc2)cc1 [compound 3, O-(4-Benzyl)-N-tolylthiocarbamate]
total sulfide levels in blood [15]: Only samples containing donor 4 with the azide trigger increased total sulfide levels

Cc1ccc(NC(=S)OCc2ccc(N=[N+]=[N-])cc2)cc1 [compound 4]
total sulfide levels in blood [15]: increased total sulfide levels in blood

Cc1ccc(NC(=S)OCc2ccc(OC(=O)C(C)(C)C)cc2)cc1 [compound 5]
ATP synthesis [1]: negatively affected
maximal respiration [1]: negatively affected
oxygen consumption linked with basal respiration [1]: negatively affected
LDH levels [3]: increase in LDH levels
cytotoxicity during live cell imaging [16]: high cytotoxicity
stability in aqueous solution [17]: stable
H2S release with PLE ([18]; 1 U/mL PLE in the presence of CA): immediate H2S release
H2S release with increased PLE ([18]; 20 U/mL PLE, otherwise identical conditions): significantly faster H2S release
rate of H2S production with acetazolamide (AAA) ([18]; PLE, CA, CA inhibitor AAA): significantly reduced the rate of H2S production
H2S generation without esterase ([18]; pH 7.4 PBS, CA 25 μg/mL, no PLE): did not result in H2S generation
fluorescence response of MeRho-Az [19]: fluorescence turn-on consistent with H2S release

Cc1ccc(NC(=O)OCc2ccc(OC(=O)C(C)(C)C)cc2)cc1 [compound 6]
ATP synthesis [1]: increases
maximal respiration [1]: did not negatively impact
oxygen consumption linked with basal respiration [1]: increases
LDH levels [3]: not observed

NC(=S)OCc1ccccc1 [compound 7]
ATP synthesis [1]: no effect
maximal respiration [1]: only slightly decreased maximal respiration at 10 μM
oxygen consumption linked with basal respiration [1]: no effect
cell viability (MTT reduction) ([2]; 10 μM, 24 hours): not observed
LDH levels [3]: not observed
direct cleavage of benzyl thiocarbamate moiety by PLE ([18]; control lacking the ester trigger): not cleaved directly by PLE
